Assay results reported in patent US20060110456A1, “Method for biocidal and/or biostatic treatment and compositions therefor” (NATIONAL UNIVERSITY OF SINGAPORE, priority 2004, published 2006).

Columns and labels:
[1] = test system: Balanus amphitrite cyprids; details: reported value of commercially available biocide (Willemsen et al., 1998); cited from earlier work
[2] = test system: marine bacteria (26 strains); experiment: Disk inhibition assay; assay type: cell-based, marine bacteria isolated from Singapore fouling communities; details: for zone of inhibition at 5 µg/disc: 5 μg per disc; for zone of inhibition at 30 µg/disc: 30 μg per disc
Experimental: Preparation of Drugs onto Disks for Assay
The non-antibiotic pharmaceuticals of Table 1 were prepared in the following way. A tablet with a known amount of active ingredient (as stated in the product information) was ground in a mortar and pestle and suspended in sterile deionized water to a concentration of 2 mg ml^−1. These samples were sonicated for at least 1 min. […] The two halves of the capsule were separated and the powder released straight into a bottle and suitable amount of water added to make a concentration of 2 mg ml^−1.
As a comparison to the pharmaceuticals, to determine the susceptibility of the bacterial isolates to conventional antibiotics, commercially available antibiotic discs were used. Antibiotic discs (Oxoid® CT series) containing Ampicillin [Amp] (2 and 10 μg), Erythromycin [Ery] (5 and 15 μg), Streptomycin [Str] (10 and 25 μg) and Tetracycline [Tet] (5 and 30 μg) were placed on lawns of the bacterial strains inoculated as described below.
Sterile swabs dipped into the cultures were used to inoculate Marine Agar plates with a bacterial lawn by smearing the culture over the surface. After inoculating the plates, discs with antibiotics, pharmaceuticals or control blanks were placed on each plate. Each concentration of antibiotic or pharmaceutical was tested with three replicates on three separate occasions. After the disks were placed on the agar surface, plates were incubated overnight in the dark at 30° C. After incubation, plates were examined for zones of inhibition or clearing around control and treated disks. The diameter of any zone of clearing or inhibition was measured using Vernier calipers.
The assay was repeated three times with three replicates for each concentration used, each time.

CCCCCCCCn1sc(Cl)c(Cl)c1=O [Sea Nine]
ED50 [1]: 0.33 ppm

CN(C)[C@@H]1C(O)=C(C(N)=O)C(=O)[C@@]2(O)C(O)=C3C(=O)c4c(O)cccc4[C@@](C)(O)[C@H]3C[C@@H]12 [Tet, tetracycline]
zone of inhibition at 5 µg/disc ([2]; strain 1 (Rhodovulum)): < 6 mm | zone of inhibition at 30 µg/disc ([2]; strain 1 (Rhodovulum)): < 6 mm | zone of inhibition at 5 µg/disc ([2]; strain 2 (Erythrobacter)): < 6 mm | zone of inhibition at 30 µg/disc ([2]; strain 2 (Erythrobacter)): < 6 mm | zone of inhibition at 5 µg/disc ([2]; strain 3 (Erythrobacter)): < 6 mm | zone of inhibition at 30 µg/disc ([2]; strain 3 (Erythrobacter)): < 6 mm | zone of inhibition at 5 µg/disc ([2]; strain 4 (Bacillus)): 10 to 19 mm | zone of inhibition at 30 µg/disc ([2]; strain 4 (Bacillus)): 10 to 19 mm | zone of inhibition at 5 µg/disc ([2]; strain 6 (Vibrio)): < 6 mm | zone of inhibition at 30 µg/disc ([2]; strain 6 (Vibrio)): 6 to 9 mm | zone of inhibition at 5 µg/disc ([2]; strain 7 (Vibrio)): < 6 mm | zone of inhibition at 30 µg/disc ([2]; strain 7 (Vibrio)): 6 to 9 mm | zone of inhibition at 5 µg/disc ([2]; strain 8 (Bacillus)): 6 to 9 mm | zone of inhibition at 30 µg/disc ([2]; strain 8 (Bacillus)): 10 to 19 mm | zone of inhibition at 5 µg/disc ([2]; strain 9 (Bacillus)): 10 to 19 mm | zone of inhibition at 30 µg/disc ([2]; strain 9 (Bacillus)): 10 to 19 mm | zone of inhibition at 5 µg/disc ([2]; strain 10 (Halobacillus)): 30 to 39 mm | zone of inhibition at 30 µg/disc ([2]; strain 10 (Halobacillus)): 10 to 19 mm | zone of inhibition at 5 µg/disc ([2]; strain 11 (Pseudomonas)): < 6 mm | zone of inhibition at 30 µg/disc ([2]; strain 11 (Pseudomonas)): < 6 mm | zone of inhibition at 5 µg/disc ([2]; strain 12 (Gordonia)): < 6 mm | zone of inhibition at 30 µg/disc ([2]; strain 12 (Gordonia)): 30 to 39 mm | zone of inhibition at 5 µg/disc ([2]; strain 13 (Bacillus)): 6 to 9 mm | zone of inhibition at 30 µg/disc ([2]; strain 13 (Bacillus)): 10 to 19 mm | zone of inhibition at 5 µg/disc ([2]; strain 14 (Vibrio)): < 6 mm | zone of inhibition at 30 µg/disc ([2]; strain 14 (Vibrio)): 10 to 19 mm | zone of inhibition at 5 µg/disc ([2]; strain 16 (Pseudoalteromonas)): < 6 mm | zone of inhibition at 30 µg/disc ([2]; strain 16 (Pseudoalteromonas)): < 6 mm | zone of inhibition at 5 µg/disc ([2]; strain 17 (Gordonia)): < 6 mm | zone of inhibition at 30 µg/disc ([2]; strain 17 (Gordonia)): < 6 mm | zone of inhibition at 5 µg/disc ([2]; strain 18 (Microbacterium)): < 6 mm | zone of inhibition at 30 µg/disc ([2]; strain 18 (Microbacterium)): 6 to 9 mm | zone of inhibition at 5 µg/disc ([2]; strain 19 (Erythrobacter)): < 6 mm | zone of inhibition at 30 µg/disc ([2]; strain 19 (Erythrobacter)): < 6 mm | zone of inhibition at 5 µg/disc ([2]; strain 20): < 6 mm | zone of inhibition at 30 µg/disc ([2]; strain 20): 10 to 19 mm | zone of inhibition at 5 µg/disc ([2]; strain 21): < 6 mm | zone of inhibition at 30 µg/disc ([2]; strain 21): 10 to 19 mm | zone of inhibition at 5 µg/disc ([2]; strain 22): 6 to 9 mm | zone of inhibition at 30 µg/disc ([2]; strain 22): 10 to 19 mm | zone of inhibition at 5 µg/disc ([2]; strain 24): < 6 mm | zone of inhibition at 30 µg/disc ([2]; strain 24): < 6 mm | zone of inhibition at 5 µg/disc ([2]; strain 26): < 6 mm | zone of inhibition at 30 µg/disc ([2]; strain 26): < 6 mm | zone of inhibition at 5 µg/disc ([2]; strain 27): < 6 mm | zone of inhibition at 30 µg/disc ([2]; strain 27): 10 to 19 mm | zone of inhibition at 5 µg/disc ([2]; strain 28): < 6 mm | zone of inhibition at 30 µg/disc ([2]; strain 28): 10 to 19 mm | zone of inhibition at 5 µg/disc ([2]; strain 29): 10 to 19 mm | zone of inhibition at 30 µg/disc ([2]; strain 29): 20 to 29 mm | zone of inhibition at 5 µg/disc ([2]; strain 30): 10 to 19 mm | zone of inhibition at 30 µg/disc ([2]; strain 30): 10 to 19 mm
